Values quoted from earlier work as cited in patent publication US11324965B2, “Non-invasive energy upconversion methods and systems” (IMMUNOLIGHT, LLC., priority 2009, dated 2022).
Where two headings read alike, the source gives them in different places. Square brackets hold non-standard residues; d marks the D form. Peptide text beside a SMILES is read from it. Bpa = N[CH](Cc1ccc(C(=O)c2ccccc2)cc1)C(=O)O; 2Nal = N[CH](Cc1ccc2ccccc2c1)C(=O)O; Aib = CC(C)(N)C(=O)O

Tests used:
[1] = for KSSET (Average): average over λex 224, 266, 280 nm
tumors = conditions: in vivo
[2] = orange juice, high UV exposure of 100 mJ/cm^2

C=C(NC(C)(C)C(=O)NC(Cc1ccc2ccccc2c1)C(=O)NC(C)(C)C(=O)NC(Cc1ccc(C(=O)c2ccccc2)cc1)C(=O)NC(C)(C)C(=O)NC(C)C(=O)O)C(C)NC(=O)[C@@H](C)N (single isomer, unassigned) [Compound 2A]
KSSET (Average) [1]: 3 × 10^7 S^−1
KSSET ([1]; λex 224 nm): 2.1 × 10^7 S^−1
KSSET ([1]; λex 266 nm): 3.7 × 10^7 S^−1
KSSET ([1]; λex 280 nm): 3.2 × 10^7 S^−1

C=C(NC(C)(C)C(=O)NC(Cc1ccc2ccccc2c1)C(=O)NC(C)(C)C(=O)NC(Cc1ccc(C(=O)c2ccccc2)cc1)C(=O)NC(C)(C)C(=O)NC(C)C(=O)O)C(C)NC(=O)[C@@H](C)N (single isomer, unassigned) [Compound 2B]
KSSET (Average) [1]: 3.9 × 10^7 S^−1
KSSET ([1]; λex 224 nm): 3.1 × 10^7 S^−1
KSSET ([1]; λex 266 nm): 3.9 × 10^7 S^−1
KSSET ([1]; λex 280 nm): 4.7 × 10^7 S^−1

CC1NC(=O)C(C)(C)NC(=O)C(Cc2ccc(C(=O)c3ccccc3)cc2)NC(=O)C(C)(C)NC(=O)C(C)NC(=O)C(C)(C)NC(=O)C(Cc2ccc3ccccc3c2)NC(=O)C(C)(C)NC1=O (centres unmarked) [Compound 1A] (cyclo([Aib][2Nal][Aib]A[Aib][Bpa][Aib]A); configuration not given here)
KSSET (Average) [1]: 3.67 × 10^7 S^−1
KSSET ([1]; λex 224 nm): 3.8 × 10^7 S^−1
KSSET ([1]; λex 266 nm): 3.6 × 10^7 S^−1
KSSET ([1]; λex 280 nm): 3.6 × 10^7 S^−1

CC(NC(=O)C(C)(C)NC(=O)C(Cc1ccc(C(=O)c2ccccc2)cc1)NC(=O)C(C)(C)NC(=O)C(C)NC(=O)C(C)(C)NC(=O)C(Cc1ccc2ccccc2c1)NC(=O)C(C)(C)N)C(=O)O (centres unmarked) [Compound 1B] (H-[Aib][2Nal][Aib]A[Aib][Bpa][Aib]A-OH; configuration not given here)
KSSET (Average) [1]: 1.87 × 10^8 S^−1
KSSET ([1]; λex 224 nm): 2.44 × 10^8 S^−1
KSSET ([1]; λex 266 nm): 1.8 × 10^8 S^−1
KSSET ([1]; λex 280 nm): 1.36 × 10^8 S^−1

Oc1cccc(-c2c3nc(c(-c4cccc(O)c4)c4ccc([nH]4)c(-c4cccc(O)c4)c4nc(c(-c5cccc(O)c5)c5ccc2[nH]5)CC4)C=C3)c1 [Foscan, Tetra (m-hydroxyphenyl) chlorin]
duration of skin photosensitivity (in vivo): approximately 2 weeks

CC(=O)[O-].CC(=O)[O-].CCc1c(CC)c2cc3nc(cnc4cc(OCCOCCOCCOC)c(OCCOCCOCCOC)cc4ncc4nc(cc1[n-]2)C(CCCO)=C4C)C(C)=C3CCCO.O.[Lu+3] [Lutetium texaphryin, Motexafin lutetium]
selectivity for tumors compared to normal tissues (tumors): one of the greatest reported selectivities for tumors
duration of skin photosensitivity (clinical use): 24 to 48 h

O=C1O[C@H]([C@@H](O)CO)C(O)=C1O [Vitamin C]
degradation of Vitamin C [2]: 17%
